Source: patent US20090176983A1, “Tenofovir Disoproxil Hemi-Fumaric Acid Co-Crystal” (ULTIMORPHIX TECHNOLOGIES B.V., priority 2007, published 2009)

Legend:
[1] = Dynamic Vapour Sorption (DVS) moisture sorption isotherm; type: physicochemical; conditions: for total uptake of water vapours: DVS, 25° C., relative humidity 0% to 95% in steps of 5%, 1 h per step
Experimental: Moisture sorption isotherms were measured using a DVS-1 system of Surface Measurement Systems (London, UK). Differences in moisture uptake of various forms of a solid material indicate differences in the relative stabilities of the various solid forms for increasing relative humidity. The experiment was carried out at a constant temperature of 25° C.
A sample of about 11.5 mg of form TDFA 2:1 was spread in the DVS pan. The sample was dried at 0% RH for 7 h. Subsequently the relative humidity of the chamber was increased in steps of 5% units from 0% to 95% in order to monitor the sorption of water vapours. The samples remained in each of the steps for 1 h. Following, desorption was monitored by decreasing the relative humidity to 0% in steps of 5% units and remaining at each step for 1 h. The total uptake of water vapours was about 0.8%, which is line with the industry standard for hygroscopicity. In a similar DVS experiment using the starting material as purchased, the total vapour intake was about 4%, which is undesirable in formulation and requires additional measures.

[2] = Comparative pharmacokinetic study of TDFA 2:1 and ULT 1 (plasma tenofovir by LC-MS-MS); type: in vivo, Male wistar rats; conditions: rats, one capsule of approximately 15 mg by oral gavage; compared with fumarate salt form ULT 1; FIG. 5
Text: The plasma samples were further worked up for analysis by LC-MS-MS for their content of tenofovir. […] The concentration of tenofovir (the active metabolite of tenofovir DF) was quantified in each sample by means of LC-MS-MS against a calibration curve. From the PK data it is concluded that the hemifumarate co-crystal of tenofovir disoproxil, TDFA 2:1 is bioequivalent to the fumarate salt of tenofovir disoproxil form ULT 1, which is a commercially available fumarate salt of tenofovir disoproxil.

[3] = summary statement, versus Gilead 1

Compound | total uptake of water vapours [1] | bioequivalence from PK data (concentration of tenofovir in plasma) [2] | changes in the structure by XRPD at the end of the DVS experiment ([1]; solid material after the sorption-desorption cycle, FIG. 4) | hygroscopicity compared with known crystalline form of tenofovir DF (Gilead 1) [1, 3] | stability compared with known crystalline form of tenofovir DF (Gilead 1) [1, 3]
CC(C)OC(=O)OCOP(=O)(CO[C@H](C)Cn1cnc2c(N)ncnc21)OCOC(=O)OC(C)C.O=C(O)/C=C/C(=O)O [starting material, 9-[(R)-2-[[bis[[(isopropoxycarbonyl)oxy]methoxy]phosphinyl]-methoxy]propyl]adenine fumarate (1:1), reference compound] | about 4% |  |  |  | 
co-crystal of tenofovir disoproxil and fumaric acid in a 2:1 molar ratio [TDFA 2:1] | about 0.8% | bioequivalent | no any changes in the structure | less hygroscopic | more stable
